Key:
Assay in all cases: drug sensitivity score (DSS) from 5-point dose-response viability curve (DSS (area-under-curve based score)); higher = more sensitive (stronger growth inhibition or killing); extreme values may be limits of the assay
Conditions in all cases: exposure time: 72 h; concentration range: 5 concentrations over 10,000-fold range
OVCAR5 = test system: OVCAR5
Method in brief: (§1)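 Each cell line and drug received a drug sensitivity score from Breeze software, where higher means more sensitive. Zero stands for no response. Scores came from CellTiter-Glo viability readings of ovarian cancer and normal ovarian cells, 1,500 per well in 384-well plates, after 3 days at 37°C, 5% CO2 with drugs at five concentrations over a 10,000-fold range.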

CAOV3 = test system: CAOV3
Method in brief: as §1

HOSE1C = test system: HOSE1C
Method in brief: as §1

HOSE2C = test system: HOSE2C
Method in brief: as §1

Kuramochi = test system: Kuramochi
Method in brief: as §1

Ovsaho = test system: Ovsaho
Method in brief: as §1

OVCAR4 = test system: OVCAR4
Method in brief: as §1

COV362 = test system: COV362
Method in brief: as §1

JHOS2 = test system: JHOS2
Method in brief: as §1

OVCAR8 = test system: OVCAR8
Method in brief: as §1

OV90 = test system: OV90
Method in brief: as §1

COV318 = test system: COV318
Method in brief: as §1

Structure (SMILES) | drug sensitivity score (OVCAR5) | drug sensitivity score (CAOV3) | drug sensitivity score (HOSE1C) | drug sensitivity score (HOSE2C) | drug sensitivity score (Kuramochi) | drug sensitivity score (Ovsaho) | drug sensitivity score (OVCAR4) | drug sensitivity score (COV362) | drug sensitivity score (JHOS2) | drug sensitivity score (OVCAR8) | drug sensitivity score (OV90) | drug sensitivity score (COV318)
Nc1ncn([C@@H]2O[C@H](CO)[C@@H](O)[C@H]2O)c(=O)n1 [Azacitidine] | 2.2 | 1.7 | 0 | 0 | 0.9 | 3.5 | 1.6 | 0.7 | 4.4 | 3.4 | 3.8 | 1.1
Cc1cc(-c2nc(-c3ccc(OC(F)(F)F)cc3)no2)nn1Cc1ccnc(N2CCN(C3CC3)CC2)c1 [BAY 87-2243] | 4.8 | 8.4 | 0 | 0 | 2.7 | 1.6 | 4.7 | 0 | 0 | 28.8 | 23.3 | 2.7
CC[C@@H]1C(=O)N(C)c2cnc(Nc3ccc(C(=O)NC4CCN(C)CC4)cc3OC)nc2N1C1CCCC1 [BI 2536] | 17.7 | 18.3 | 12.5 | 8.7 | 11.4 | 19.7 | 3.9 | 2.1 | 11.9 | 23.5 | 15 | 3.9
COc1c(C)cnc(Cn2cnc3c(Cl)nc(N)nc32)c1C [BIIB021] | 17.3 | 16 | 15 | 20.5 | 9 | 3.3 | 9.9 | 9.5 | 20.6 | 19.7 | 18.5 | 7
CC1(C)C(C(=O)Nc2ccc(S(=O)(=O)c3ccc(NC(=O)C4C(C)(C)C4(C)C)cc3)cc2)C1(C)C [BRD7116] | 2.1 | 0.3 | 0 | 0 | 2.1 | 3.8 | 2.1 | 0 | 0.7 | 0 | 0 | 0.1
O=C(Nc1cccc(Nc2ncc(Br)c(NCCc3cnc[nH]3)n2)c1)N1CCCC1 [BX-912] | 2.4 | 10.3 | 4.5 | 8 | 1.4 | 3.5 | 3.7 | 1.3 | 2.5 | 4.7 | 7.4 | 0.4
Cc1ccc(NC(=O)c2ccc(CN3CC[C@H](N(C)C)C3)c(C(F)(F)F)c2)cc1Nc1nccc(-c2cncnc2)n1 [Bafetinib] | 0 | 0 | 0 | 0 | 0 | 0 | 0 | 0 | 0 | 0 | 3 | 0
CCS(=O)(=O)N1CC(CC#N)(n2cc(-c3ncnc4[nH]ccc34)cn2)C1 [Baricitinib] | 0 | 0 | 0 | 0 | 0 | 0 | 0 | 0 | 0 | 0 | 0 | 0
O=C(/C=C/c1cccc(S(=O)(=O)Nc2ccccc2)c1)NO [Belinostat] | 17.2 | 13.6 | 23.4 | 18.1 | 10.2 | 11.7 | 8.6 | 7.3 | 10 | 18.2 | 13.5 | 9.1
N#CC(c1ccnc(OCc2ccc(CN3CCOCC3)cc2)n1)c1nc2ccccc2s1 (stereo not drawn) [Bentamapimod] | 4.5 | 1.5 | 0 | 0.3 | 2 | 1.1 | 1.8 | 3.8 | 1.4 | 2.3 | 5.5 | 1.3
C=C(c1ccc(C(=O)O)cc1)c1cc2c(cc1C)C(C)(C)CCC2(C)C [Bexarotene] | 0 | 1.5 | 0 | 0 | 0.1 | 0 | 0 | 0 | 1.3 | 0.1 | 1.3 | 0.1
CC(O)(CS(=O)(=O)c1ccc(F)cc1)C(=O)Nc1ccc(C#N)c(C(F)(F)F)c1 (stereo not drawn) [Bicalutamide] | 0.7 | 0 | 8.4 | 0 | 0.2 | 0 | 0.5 | 0 | 0 | 0.3 | 0 | 0
CCNC(=O)CCC/C=C\C[C@@H]1[C@@H](/C=C/[C@@H](O)CCc2ccccc2)[C@H](O)C[C@@H]1O [Bimatoprost] | 0 | 0 | 0 | 0 | 0 | 0 | 0 | 0 | 0 | 0 | 0 | 0
Cn1cnc2c(F)c(Nc3ccc(Br)cc3F)c(C(=O)NOCCO)cc21 [Binimetinib] | 7.1 | 7.6 | 0 | 0 | 3.5 | 6.2 | 1.7 | 1.3 | 1.5 | 0 | 13.4 | 0
Cc1sc2c(c1C)C(c1ccc(Cl)cc1)=N[C@@H](CC(=O)Nc1ccc(O)cc1)c1nnc(C)n1-2 [Birabresib] | 10.8 | 13.1 | 15.1 | 13.4 | 12.5 | 12.9 | 8.1 | 2.3 | 5.4 | 12.6 | 10.2 | 1.7
CC[C@H](NC(=O)[C@H](C)NC)C(=O)N1C[C@@H](O)C[C@H]1Cc1c(-c2[nH]c3cc(F)ccc3c2C[C@@H]2C[C@H](O)CN2C(=O)[C@H](CC)NC(=O)[C@H](C)NC)[nH]c2cc(F)ccc12 [Birinapant] | 0 | 9.2 | 0 | 0 | 0.4 | 11.6 | 12.6 | 0 | 5.6 | 1.9 | 0.8 | 0.2
Cc1c(N)nc([C@H](CC(N)=O)NC[C@H](N)C(N)=O)nc1C(=O)N[C@H](C(=O)N[C@H](C)[C@@H](O)[C@H](C)C(=O)N[C@H](C(=O)NCCc1nc(-c2nc(C(=O)NCCC[S+](C)C)cs2)cs1)[C@@H](C)O)[C@@H](OC1OC(CO)C(O)C(O)C1OC1OC(CO)C(O)C(OC(N)=O)C1O)c1cnc[nH]1 (stereo partly drawn) [Bleomycin] | 2.3 | 2.2 | 2.8 | 4.5 | 0 | 1 | 0.6 | 0 | 0.8 | 5.6 | 2.6 | 0
CC(C)C[C@H](NC(=O)[C@H](Cc1ccccc1)NC(=O)c1cnccn1)B(O)O [Bortezomib] | 23.9 | 26.4 | 27.4 | 24.4 | 9.3 | 17.8 | 24.6 | 24.7 | 24.5 | 23 | 22.8 | 28.3
COc1cc(Nc2c(C#N)cnc3cc(OCCCN4CCN(C)CC4)c(OC)cc23)c(Cl)cc1Cl [Bosutinib] | 9.4 | 8 | 6.8 | 6.2 | 8.8 | 10.5 | 5.7 | 8.5 | 7 | 6.7 | 8.7 | 2
COc1cc(N2CCC(N3CCN(C)CC3)CC2)ccc1Nc1ncc(Cl)c(Nc2ccccc2P(C)(C)=O)n1 [Brigatinib] | 3.7 | 3.3 | 0.3 | 2.9 | 3.5 | 4.3 | 1.7 | 1.6 | 2.1 | 0 | 4 | 3.5
Cc1cc2c(F)c(Oc3ncnn4cc(OC[C@@H](C)O)c(C)c34)ccc2[nH]1 [Brivanib] | 0 | 0 | 0 | 0 | 0 | 0 | 0 | 0 | 0 | 0 | 0 | 0
CCC/C=C/C=C/C(=O)O[C@H]1/C(=C/C(=O)OC)C[C@H]2C[C@H]([C@@H](C)O)OC(=O)C[C@H](O)C[C@@H]3C[C@H](OC(C)=O)C(C)(C)[C@](O)(C[C@@H]4C/C(=C/C(=O)OC)C[C@H](/C=C/C(C)(C)[C@]1(O)O2)O4)O3 [Bryostatin 1] | 0.2 | 0.1 | 10.3 | 1.6 | 0 | 0 | 1.1 | 8.9 | 0 | 0 | 1.4 | 1.4
Nc1cc(C(F)(F)F)c(-c2cc(N3CCOCC3)nc(N3CCOCC3)n2)cn1 [Buparlisib] | 8.8 | 8.7 | 8.6 | 8.8 | 6.1 | 6.5 | 5.3 | 3.8 | 4.6 | 7.7 | 5.1 | 4.6
CCN1C(=O)CNc2ncc(-c3ccc(-c4nc[nH]n4)nc3C)nc21 [CC-115] | 7.4 | 8 | 12 | 9.2 | 7.3 | 11.2 | 9.3 | 2.4 | 7.5 | 8.5 | 10.4 | 5.6
COc1cc(C)[nH]c(=O)c1CNC(=O)c1c(C)n([C@H](C)C2CCOCC2)c2ccccc12 [CPI-360] | 0.8 | 0 | 0 | 0 | 0 | 0 | 0 | 0 | 0.2 | 0 | 0.6 | 0
Cc1noc2c1-c1ccccc1C(c1ccc(Cl)cc1)=N[C@H]2CC(N)=O [CPI-0610] | 9.3 | 8.5 | 9.3 | 9.9 | 13 | 12.6 | 5 | 5.9 | 5 | 6.4 | 7.6 | 4.1
CN(C)c1cc2c(cc1Sc1nc3c(N)nccc3n1CCNCC(C)(C)C)OCO2 [CUDC-305] | 10.8 | 14.5 | 11.5 | 15.3 | 5.9 | 3 | 8.5 | 8.8 | 10.8 | 16.4 | 14.5 | 4
COc1ccc(-c2nc(N3CCOCC3)c3sc(CN(C)c4ncc(C(=O)NO)cn4)cc3n2)cn1 [CUDC-907] | 38.3 | 31.3 | 45.8 | 42.7 | 29.4 | 29.2 | 26.2 | 20.3 | 26.4 | 41.5 | 37 | 21.3
CO[C@H]1C(=O)[C@]2(C)[C@@H](OC)C[C@H]3OC[C@@]3(OC(C)=O)[C@H]2[C@H](OC(=O)c2ccccc2)[C@]2(O)C[C@H](OC(=O)[C@H](O)[C@@H](NC(=O)OC(C)(C)C)c3ccccc3)C(C)=C1C2(C)C [Cabazitaxel] | 25.6 | 29.3 | 29.9 | 29.8 | 10.7 | 9 | 4.3 | 7.8 | 12.8 | 30.6 | 13.2 | 7.3
